Read-outs that look alike come from different tables or passages of the source.
Tests used:
[1] = molecular target: T1, PLA2G16 (Homo sapiens, UniProt P53816); experiment: Enzyme activity assay for PLA2G16 (Red/Green BODIPY PC-A2 fluorescence); format: biochemical; details: His-tagged PLA2G16, 4 min pre-incubation, 2 nM to 50 μM; read-out: IC50 values of the compounds determined in the enzyme activity assay for PLA2G16
T1 construct: Hexa-His (N); made in house; host or cells: E. coli BL21(DE3)
T1 sequence (P53816 1-162): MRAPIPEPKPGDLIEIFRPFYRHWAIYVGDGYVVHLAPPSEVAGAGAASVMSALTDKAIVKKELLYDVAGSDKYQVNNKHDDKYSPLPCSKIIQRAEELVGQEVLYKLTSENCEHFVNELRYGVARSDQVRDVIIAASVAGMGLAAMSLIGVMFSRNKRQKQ
Source text: A cDNA for PLA2G16(NM_007069) was custom-synthesized by Genscript (Piscataway, USA) and inserted into a pET-based bacterial expression vector [Moffatt, B. A. and Studier, F. W. (1986) J. Mol. Biol. 189, 113-130; Rosenberg, A. H., Lade, B. N., Chui, D., Lin, S., Dunn, J. J., and Studier, F. W. (1987) Gene 56, 125-135], enabling the expression of N-terminally Hexa-His-tagged PLA2G16. E. coli BL21(DE3) (Agilent) were transformed with pET-His-PLA2G16according to the manufacturer's instructions and plated on Carbenicillin-containing agar plates (final concentration: 100 μg/mL). A single clone was in occulated in 100 mL LB medium supplemented with 100 μg/mL Carbenicillin and the in occulated culture was grown at 37° C. overnight in a rotary shaker. On the next day, the bacterial culture was diluted in LB medium supplemented with 100 μg/mL Carbenicillin (30 mL overnight culture in 800 mL total culture volume). Bacteria were grown at 37° C. until the OD600 reached 0.6. Gene expression was induced by addition of 1 mM isopropyl-β-D-thiogalactopyranosid (IPTG) for 2 h at 18° C. Subsequently, bacteria were harvested by centrifugation (15 min; 10,000×g; 4° C.) and frozen at −80° C. The bacterial pellet was resuspended in Buffer A (50 mM Tris/HCl pH 7.5, 500 mM NaCl, 5% glycerol, 5 mM β-Mercaptoethanol and 1 mM PMSF) and lysed by addition of 1 mg/mL lysozyme (Sigma Aldrich) and 100 μg/mL DNasel-(Roche). The sample was incubated at 30° C. for 30 min to allow lysis to occur. Then, the lysate was cleared by centrifugation (15,000×g, 15 min, 4° C.) and incubated with 1.5 mL Ni-NTA agarose suspension (Qiagen) for 60 min at 4° C. The Ni-NTA agarose was washed with 10 mL Buffer A. Bound protein was eluted by applying a manual gradient of Buffer A supplemented with increasing concentrations of imidazole (Sigma Aldrich; 25/50/75/100/250 mM). Purified fractions were analyzed by SDS-PAGE followed by Coomassie staining to assess the purity.
Activity of the protein was assessed as follows: Red/Green BODIPY® PC-A2 (Invitrogen, 1 mM in DMSO) was mixed with equal volumes of 1,2-Dioleoyl-sn-glycero-3-phosphocholine (DOPC; Sigma Aldrich, 10 mM in Ethanol) and 1,2-Dioleoyl-sn-glycero-3-phospho-rac-(1-glycerol) (DOPG; Sigma Aldrich, 10 mM in Ethanol) and 0.5 volumes of Cholesterol (CHOL; Sigma Aldrich, 10 mM in Ethanol) and vortexed for 5 s. The mixture (Red/Green BODIPY® PC-A2/DOPC/DOPG/CHOL) was diluted 1:91.4 in activity assay buffer (50 mM Tris/HCl pH 8.5, 100 mM NaCl) using a small-orifice pipette tip under constant vortexing. In the following, this preparation will be referred to as the “substrate solution”.
In order to evaluate their inhibitory potential, compounds were dissolved at 10 mM concentration in DMSO and directly spotted into assay plates (Corning, Cat. No. 3576) using acoustic liquid transfer (Labcyte Echo 525). Each compound was spotted at increasing concentrations, ranging from 2 nM to 50 μM (concentration in the final assay volume). 50 μl of PLA2G16 enzyme solution (diluted in activity buffer, supplemented with 5 mM L-Glutathione; Sigma Aldrich) was pre-incubated with compounds for 4 min., followed by addition of 50 μl of substrate solution. Fluorescence was recorded immediately after substrate addition for a total time of 10 min. using a SpectraMax M5 multimode reader (Excitation wavelength: 480 nm, emission wavelength: 530 nm). The relative increase of fluorescence over time is referred to as the enzyme activity. Half-maximal inhibitory concentrations (IC50) were derived by non-linear regression analysis using the drc package in R (R Development. Core Team, 2005).

[2] = system: picornaviruses (CVB1, HRV-A2, HRV-A23, EV-68); experiment: Anti-picornavirus cytopathic effect (CPE) reduction assay on HeLa H1 cells; format: cell-based; details: Enterovirus B, HeLa H1, 48 h
Experimental: The antiviral activity of selected compounds was tested using a cytopathic effect (CPE) reduction assay on HeLa H1 cells (ATCC CRL-1958). Briefly, cells were seeded in 96-well dishes (2×10^4 cells/well) in DMEM medium (Life technologies) supplemented with 10% FBS and PenStrep solution (100 U/mL Penicillin and 100 μg/mL streptomycin) and incubated at 37° C., 5% CO2 ovemight. The next day, cells were pre-treated with serial dilutions of the compound in DMEM medium supplemented with 2% FBS and PenStrep for 2 h at 37° C., 5% CO2. Next, cells were infected with virus (CVB1, HRV-A2, HRV-A23, EV-68) at an multiplicity of infection (MOI) which results in a complete virus-induced CPE within 2 days in control wells (infected and vehicle-treated). After 48 h, supematants were aspirated and 50 μl/well of CellTiterBlue reagent (Promega) diluted 1:5 in DMEM+2% FBS, was added to the cells. Plates were returned to the incubator and allowed to develop for 1.5 h. After that, plates were equilibrated to RT and subsequently, fluorescence was recorded (Excitation wavelength: 560 nm; emission wavelength: 590 nm) using a SpectraMax M5 multimode plate reader. Viability of cells was calculated according to the formula: V=(RFUCpd−RFUVeh/(RFUM−RFUVeh), where RFUCpd refers to infected and compound-treated cells, RFUVeh to infected and vehicle-treated cells and RFUM to uninfected and vehicle treated cells. Half-maximal effective concentrations (EC50) were calculated by non-linear regression analysis using the drc package in R (R Development. Core Team, 2005). EC50 categories as presented in Table 2 were calculated by averaging the EC50 values from four picornaviruses (CVB1, HRV-A2, HRV-A23, EV68).

[3] = HeLa H1 cells, 48 h, category from averaging the EC50 values from four picornaviruses (CVB1, HRV-A2, HRV-A23, EV68), read-out: EC50 values of the compounds determined in the anti-picornavirus assay
[4] = read-out: EC50 values of the compounds determined in the anti-picornavirus assay, HeLa H1 cells, 48 h, category from averaging the EC50 values from four picornaviruses (CVB1, HRV-A2, HRV-A23, EV68)

SMILES | IC50 [1] | EC50 [2, 3] | EC50 [2, 4]
O=C(NCC1CCCCC1)C(=O)C1CCC(=O)N1CC1CCOCC1 (stereo not shown) [FP 248, N-(Cyclohexylmethyl)-2-{1-[(oxan-4-yl)methyl]-5-oxopyrrolidin-2-yl}-2-oxoacetamide] | < 1000 nM | < 1000 nM | –
O=C(NC1CC1)C(=O)[C@H]1CCC(=O)N1Cc1ccc(Cl)cc1 [FP 284, 2-[(2R)-1-[(4-Chlorophenyl)methyl]-5-oxopyrrolidin-2-yl]-N-cyclopropyl-2-oxoacetamide] | < 1000 nM | < 1000 nM | –
Cc1cc(CNC(=O)C(=O)[C@H]2CCC(=O)N2Cc2ccccc2)no1 [FP 289, 2-[(2R)-1-Benzyl-5-oxopyrrolidin-2-yl]-N-[(5-methyl-1,2-oxazol-3-yl)methyl]-2-oxoacetamide] | < 1000 nM | < 1000 nM | –
CC(C)(O)CNC(=O)C(=O)C1CCC(=O)N1Cc1ccc(Cl)cc1 (stereo not shown) [FP 274, 2-{1-[(4-Chlorophenyl)methyl]-5-oxopyrrolidin-2-yl}-N-(2-hydroxy-2-methylpropyl)-2-oxoacetamide] | < 1000 nM | 1000 to 10000 nM | –
Cc1ccc(CN2C(=O)CCC2C(=O)C(=O)NC2CC2)cc1 (stereo not shown) [FP 270, N-Cyclopropyl-2-{1-[(4-methylphenyl)methyl]-5-oxopyrrolidin-2-yl}-2-oxoacetamide] | < 1000 nM | < 1000 nM | –
O=C(NCC1CC1)C(=O)C1CCC(=O)N1c1ccccc1 (stereo not shown) [FP 264, N-(Cyclopropylmethyl)-2-oxo-2-(5-oxo-1-phenylpyrrolidin-2-yl)acetamide] | 1000 to 10000 nM | > 10000 nM | –
O=C(NCC1CCCC1)C(=O)C1CCC(=O)N1CC1CC1 (stereo not shown) [FP 255, N-(Cyclopentylmethyl)-2-[1-(cyclopropylmethyl)-5-oxopyrrolidin-2-yl]-2-oxoacetamide] | < 1000 nM | 1000 to 10000 nM | –
CCCC(=O)N(c1ccccc1OC)C(C)C(=O)C(=O)NCc1cccc(Cl)c1 (stereo not shown) [FP 143, N-[(3-Chlorophenyl)methyl]-3-[N-(2-methoxyphenyl)butanamido]-2-oxobutanamide] | < 1000 nM | 1000 to 10000 nM | –
CC(C)[C@H]1CC(=O)N(Cc2ccccc2)[C@@H]1C(=O)C(=O)NC1CC1 (racemic) [FP 342, 2-[(2S,3R)-1-Benzyl-5-oxo-3-(propan-2-yl)pyrrolidin-2-yl]-N-cyclopropyl-2-oxoacetamide and 2-[(2R,3S)-1-benzyl-5-oxo-3-(propan-2-yl)pyrrolidin-2-yl]-N-cyclopropyl-2-oxoacetamide] | < 1000 nM | < 1000 nM | –
CC(OCC1CC1)C(=O)C(=O)NCC1CC1 (stereo not shown) [FP 134, 3-(Cyclopropylmethoxy)-N-(cyclopropylmethyl)-2-oxobutanamide] | < 1000 nM | 1000 to 10000 nM | –
Cc1noc(CCNC(=O)C(=O)[C@H]2CCC(=O)N2Cc2ccccc2)n1 [FP 293, 2-[(2R)-1-Benzyl-5-oxopyrrolidin-2-yl]-N-[2-(3-methyl-1,2,4-oxadiazol-5-yl)ethyl]-2-oxoacetamide] | < 1000 nM | 1000 to 10000 nM | –
O=CN(Cc1ccccc1)C(C(=O)C(=O)NCC1CC1)C1CCOCC1 (stereo not shown) [FP 71, 3-(N-Benzylformamido)-N-(cyclopropylmethyl)-3-(oxan-4-yl)-2-oxopropanamide] | < 1000 nM | 1000 to 10000 nM | –
CC(OCC1CCOCC1)C(=O)C(=O)NCC1CCCC1 (stereo not shown) [FP 132, N-(Cyclopentylmethyl)-3-[(oxan-4-yl)methoxy]-2-oxobutanamide] | < 1000 nM | < 1000 nM | –
CC(C(=O)C(=O)NCC1CC1)N(C=O)C1CCCCC1 (stereo not shown) [FP 40, 3-(N-Cyclohexylformamido)-N-(cyclopropylmethyl)-2-oxobutanamide] | < 1000 nM | < 1000 nM | –
CC(C)CNC(=O)C(=O)C(C)OC1CCCCC1 (stereo not shown) [FP 124, 3-(Cyclohexyloxy)-N-(2-methylpropyl)-2-oxobutanamide] | < 1000 nM | < 1000 nM | –
CCC(NS(=O)(=O)c1ccccc1)C(=O)C(=O)NCC1CC1 (stereo not shown) [FP 216, 3-Benzenesulfonamido-N-(cyclopropylmethyl)-2-oxopentanamide] | < 1000 nM | 1000 to 10000 nM | –
CC[C@H](C)NC(=O)C(=O)C(C)N(C=O)c1ccccc1OC (stereo partly drawn) [FP 106, N-[(2S)-Butan-2-yl]-3-[N-(2-methoxyphenyl)formamido]-2-oxobutanamide] | < 1000 nM | 1000 to 10000 nM | –
O=C(NCC1CC1)C(=O)[C@@H]1CCC(=O)N1Cc1ccccc1 [FP 225, 2-[(2S)-1-Benzyl-5-oxopyrrolidin-2-yl]-N-(cyclopropylmethyl)-2-oxoacetamide] | – | – | > 10000 nM
CC(OCC1CCCCC1)C(=O)C(=O)NCC1CC1 (stereo not shown) [FP 123, 3-(Cyclohexylmethoxy)-N-(cyclopropylmethyl)-2-oxobutanamide] | – | – | 1000 to 10000 nM
COc1cccc(CNC(=O)C(=O)C(C)N(C=O)c2ccccc2OC)c1 (stereo not shown) [FP 85, 3-[N-(2-Methoxyphenyl)formamido]-N-[(3-methoxyphenyl)methyl]-2-oxobutanamide] | < 1000 nM | – | –
COc1ccccc1N(C(C)=O)C(C)C(=O)C(=O)NCc1cccc(Cl)c1 (stereo not shown) [FP 185, N-[(3-Chlorophenyl)methyl]-3-[N-(2-methoxyphenyl)acetamido]-2-oxobutanamide] | < 1000 nM | – | –
COc1ccccc1N(C=O)C(C)C(=O)C(=O)NCc1cc(Cl)cc(Cl)c1 (stereo not shown) [FP 83, N-[(3,5-Dichlorophenyl)methyl]-3-[N-(2-methoxyphenyl)formamido]-2-oxobutanamide] | < 1000 nM | – | –
CC(NC(=O)c1ccc(F)cc1)C(=O)C(=O)NCC1CC1 (stereo not shown) [FP 153, N-(Cyclopropylmethyl)-3-[(4-fluorophenyl)formamido]-2-oxobutanamide] | 1000 to 10000 nM | – | –

From patent US11091428B2 (HAPLOGEN GMBH, priority 2016, dated 2021)
